According to ChEMBL document CHEMBL1268988, “An in situ oxidation strategy towards overcoming hERG affinity” (Bioorg Med Chem Lett, 2010):

How the values were obtained:
[1] = Inhibition of HIV1 gp160 by cell-cell fusion inhibition assay; set-up: species or system Human immunodeficiency virus 1
[2] = target: T1, Voltage-gated inwardly rectifying potassium channel KCNH2 (Homo sapiens, UniProt Q12809); assay: Inhibition of human ERG at 10 uM
[3] = Permeability from apical to basolateral side in human Caco-2 cells at 5 uM; type: ADME, cell-based; conditions: read-out: permeability
[4] = Permeability from apical to basolateral side of human Caco-2 cells at 5 uM; type: ADME, cell-based; conditions: read-out: permeability
[5] = Membrane permeability across dog RRCK at 2 uM; type: ADME, cell-based, Canis lupus familiaris, MDCKII-LE; conditions: MDCK, read-out: permeability
[6] = Metabolic stability in human liver microsomes assessed as intrinsic clearance at 1 uM; type: ADME, Microsome
[7] = Lipophilicity, log D of the compound; type: physicochemical; conditions: octanol/water
[8] = Absorption in rat at 3 mg/kg, po; type: ADME, organism-based; set-up: dose 3 mg/kg, route oral; conditions: in vivo, read-out: Activity
[9] = target: T1, Voltage-gated inwardly rectifying potassium channel KCNH2; assay: Inhibition of human ERG
[10] = tested on: Rattus norvegicus; assay: Unbound volume of distribution in rat at 1 mg/kg, iv; type: ADME, organism-based; set-up: dose 1 mg/kg, route intravenous; conditions: in vivo
[11] = Terminal half life in rat at 1 mg/kg, iv; type: ADME, organism-based; set-up: dose 1 mg/kg, route intravenous; conditions: in vivo, read-out: beta t1/2 (converted)
[12] = AUC in rat at 1 mg/kg, iv; type: ADME, organism-based; set-up: dose 1 mg/kg, route intravenous; conditions: plasma
[13] = Metabolic stability in rat liver microsomes assessed as intrinsic clearance; type: ADME, Microsome
[14] = tested on: Rattus norvegicus; assay: Unbound clearance in rat at 1 mg/kg, iv; type: ADME, organism-based; set-up: dose 1 mg/kg, route intravenous; conditions: in vivo
[15] = Oral bioavailability in rat at 3 mg/kg, po; type: ADME, organism-based; conditions: in vivo
[16] = Clearance in rat at 1 mg/kg, iv; type: ADME, organism-based; set-up: dose 1 mg/kg, route intravenous; conditions: in vivo
[17] = Volume of distribution in rat at 1 mg/kg, iv; type: ADME, organism-based; set-up: dose 1 mg/kg, route intravenous; conditions: in vivo
[18] = AUC in rat at 3 mg/kg, po; type: ADME, organism-based; set-up: dose 3 mg/kg, route oral; conditions: plasma
[19] = tested on: Rattus norvegicus; assay: fAUC in rat at 3 mg/kg, po; type: ADME, organism-based; set-up: dose 3 mg/kg, route oral; conditions: in vivo
[20] = tested on: Rattus norvegicus; assay: fAUC in rat at 1 mg/kg, iv; type: ADME, organism-based; set-up: dose 1 mg/kg, route intravenous; conditions: in vivo
[21] = Half life in rat at 1 mg/kg, iv and 2 mg/kg, po; type: ADME, organism-based; conditions: in vivo
[22] = Volume of distribution in rat at 1 mg/kg, iv and 2 mg/kg, po; type: ADME, organism-based; conditions: in vivo
[23] = Oral bioavailability in rat at 1 mg/kg, iv and 2 mg/kg, po; type: ADME, organism-based; conditions: in vivo
[24] = Clearance in rat at 1 mg/kg, iv and 2 mg/kg, po; type: ADME, organism-based; conditions: in vivo

T1 sequence (Q12809 whole entry): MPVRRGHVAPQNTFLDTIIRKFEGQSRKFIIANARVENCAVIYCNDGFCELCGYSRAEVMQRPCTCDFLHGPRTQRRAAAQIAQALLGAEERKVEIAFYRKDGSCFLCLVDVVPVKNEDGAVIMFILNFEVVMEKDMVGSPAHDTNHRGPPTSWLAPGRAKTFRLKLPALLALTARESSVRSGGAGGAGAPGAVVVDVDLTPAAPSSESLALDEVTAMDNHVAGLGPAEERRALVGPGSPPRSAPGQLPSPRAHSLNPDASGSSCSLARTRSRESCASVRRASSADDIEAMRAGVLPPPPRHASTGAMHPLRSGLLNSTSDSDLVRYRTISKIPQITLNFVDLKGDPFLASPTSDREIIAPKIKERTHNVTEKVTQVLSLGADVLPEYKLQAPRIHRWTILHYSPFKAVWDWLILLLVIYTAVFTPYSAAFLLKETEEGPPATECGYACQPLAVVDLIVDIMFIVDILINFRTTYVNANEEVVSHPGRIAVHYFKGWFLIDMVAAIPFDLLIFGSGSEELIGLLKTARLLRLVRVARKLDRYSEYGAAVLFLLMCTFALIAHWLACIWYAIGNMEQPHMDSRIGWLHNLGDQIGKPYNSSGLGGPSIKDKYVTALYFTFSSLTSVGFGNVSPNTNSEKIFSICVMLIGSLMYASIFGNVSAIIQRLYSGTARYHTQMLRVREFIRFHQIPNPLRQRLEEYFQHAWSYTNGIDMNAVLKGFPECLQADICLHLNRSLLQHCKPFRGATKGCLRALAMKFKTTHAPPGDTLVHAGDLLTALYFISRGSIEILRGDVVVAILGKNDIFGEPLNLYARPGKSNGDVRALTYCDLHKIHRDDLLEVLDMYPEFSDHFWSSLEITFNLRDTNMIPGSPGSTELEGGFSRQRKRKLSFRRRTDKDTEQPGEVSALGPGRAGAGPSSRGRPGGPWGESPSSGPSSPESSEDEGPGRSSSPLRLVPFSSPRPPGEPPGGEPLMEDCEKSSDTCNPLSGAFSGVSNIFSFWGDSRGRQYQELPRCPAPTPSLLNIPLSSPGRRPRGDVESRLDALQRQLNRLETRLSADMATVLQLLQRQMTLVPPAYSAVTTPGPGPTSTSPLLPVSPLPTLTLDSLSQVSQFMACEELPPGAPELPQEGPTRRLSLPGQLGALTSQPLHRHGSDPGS

Row | Compound | IC50 [1] [nM] | inhibition (INH) [2] | Papp at 2 µM [5] [×10⁻⁶ cm/s] | microsomal CLint at 1 µM [6] [µL/min/mg] | also measured
1 | Cc1nc2ccccc2n1C1C[C@H]2CC[C@@H](C1)N2CC[C@H](NC(=O)c1ccc(S(C)(=O)=O)cc1)c1cccc(F)c1 (stereo not given in full) | 40 | – | – | – | –
2 | Cc1nc2ccc(F)cc2n1C1C[C@H]2CC[C@@H](C1)N2CCC(NC(=O)C1CC[S+]([O-])CC1)c1cccc(F)c1 (stereo not given in full) | 0.01 | Not Active | – | – | Papp A→B at 5 µM [3]: 18 ×10⁻⁶ cm/s; Papp A→B at 5 µM [4]: 2 ×10⁻⁶ cm/s
3 | Cc1nc2cc(F)ccc2n1C1C[C@H]2CC[C@@H](C1)N2CCC(NC(=O)C1CC[S+]([O-])CC1)c1cccc(F)c1 (stereo not given in full) | 0.4 | Not Active | 2 | 93 | –
4 | CCc1nc2ccccc2n1C1C[C@H]2CC[C@@H](C1)N2CCC(NC(=O)C1CC[S+]([O-])CC1)c1cccc(F)c1 (stereo not given in full) | 0.05 | Not Active | 2 | 89 | –
5 | Cc1nc2ccc(F)cc2n1C1C[C@H]2CC[C@@H](C1)N2CC[C@H](NC(=O)C1CCS(=O)(=O)CC1)c1cccc(F)c1 (stereo not given in full) | 0.01 | – | 2 | 10 | Papp A→B at 5 µM [3]: 31 ×10⁻⁶ cm/s; logD [7]: 2.9; Papp A→B at 5 µM [4]: 5 ×10⁻⁶ cm/s; Fa [8]: 3%
6 | Cc1nc2cc(F)ccc2n1C1C[C@H]2CC[C@@H](C1)N2CC[C@H](NC(=O)C1CCS(=O)(=O)CC1)c1cccc(F)c1 (stereo not given in full) | 0.03 | Not Active | 2 | 14 | Papp A→B at 5 µM [3]: 21 ×10⁻⁶ cm/s; Papp A→B at 5 µM [4]: 3 ×10⁻⁶ cm/s
7 | CCc1nc2ccccc2n1C1C[C@H]2CC[C@@H](C1)N2CC[C@H](NC(=O)C1CCS(=O)(=O)CC1)c1cccc(F)c1 (stereo not given in full) | 0.3 | Not Active | 3 | 25 | –
8 | Cc1nc2ccccc2n1C1C[C@H]2CC[C@@H](C1)N2CC[C@H](NC(=O)c1ccc([S+](C)[O-])cc1)c1cccc(F)c1 (stereo not given in full) | 40 | – | – | – | –
9 | Cc1nc2ccncc2n1C1C[C@H]2CC[C@@H](C1)N2CC[C@H](NC(=O)c1ccc([S+](C)[O-])cc1)c1cccc(F)c1 (stereo not given in full) | 2 | – | – | – | –
10 | Cc1nc2ccc(F)cc2n1C1C[C@H]2CC[C@@H](C1)N2CC[C@H](NC(=O)c1ccc([S+](C)[O-])cc1)c1cccc(F)c1 (stereo not given in full) | 1 | – | – | – | –
11 | Cc1nc2cc(F)ccc2n1C1C[C@H]2CC[C@@H](C1)N2CC[C@H](NC(=O)c1ccc([S+](C)[O-])cc1)c1cccc(F)c1 (stereo not given in full) | 36 | – | – | – | –
12 | Cc1nc2ccncc2n1C1C[C@H]2CC[C@@H](C1)N2CC[C@H](NC(=O)c1ccc(S(C)(=O)=O)cc1)c1cccc(F)c1 (stereo not given in full) | 1 | – | – | – | –
13 | Cc1nc2cc(F)ccc2n1C1C[C@H]2CC[C@@H](C1)N2CC[C@H](NC(=O)c1ccc(S(C)(=O)=O)cc1)c1cccc(F)c1 (stereo not given in full) | 8 | – | – | – | –
14 | Cc1nc2cc(F)ccc2n1C1C[C@H]2CC[C@@H](C1)N2CC[C@H](NC(=O)c1cc[n+]([O-])cc1)c1cccc(F)c1 (stereo not given in full) | 0.1 | – | – | – | –
15 | CCc1nc2ccccc2n1C1C[C@H]2CC[C@@H](C1)N2CC[C@H](NC(=O)c1cc[n+]([O-])cc1)c1cccc(F)c1 (stereo not given in full) | 24 | – | – | – | –
16 | Cc1nc2ccc(F)cc2n1C1C[C@H]2CC[C@@H](C1)N2CC[C@H](NC(=O)c1ccc[n+]([O-])c1)c1cccc(F)c1 (stereo not given in full) | 0.5 | – | – | – | –
17 | Cc1nc2cc(F)ccc2n1C1C[C@H]2CC[C@@H](C1)N2CC[C@H](NC(=O)c1ccc[n+]([O-])c1)c1cccc(F)c1 (stereo not given in full) | 1 | – | – | – | –
18 | Cc1nc2ccncc2n1C1C[C@H]2CC[C@@H](C1)N2CC[C@H](NC(=O)C1CCS(=O)(=O)CC1)c1cccc(F)c1 (stereo not given in full) | 0.2 | Not Active | 1 | < 8 | –
19 | Cc1nc2ccncc2n1C1C[C@H]2CC[C@@H](C1)N2CC[C@H](NC(=O)c1cc[n+]([O-])cc1)c1cccc(F)c1 (stereo not given in full) | 4 | – | – | – | –
20 | Cc1nc2ccccc2n1C1C[C@H]2CC[C@@H](C1)N2CC[C@H](NC(=O)C1CCSCC1)c1cccc(F)c1 (stereo not given in full) | 0.2 | – | 29 | > 320 | IC50 [9]: 740 nM; Vdu [10]: 81 L/kg; half-life [11]: 0.8 h; AUC [12]: 270 ng·h/mL; microsomal CLint [13]: > 510 µL/min/mg; CL free [14]: 2431 mL/min/kg; bioavailability [15]: 1%; clearance [16]: 60 mL/min/kg; logD [7]: 3.7; Vd [17]: 2 L/kg; AUC [18]: 10 ng·h/mL; fAUC [19]: 0.25 ng·h/mL; Fa [8]: 9%; fAUC [20]: 6.7 ng·h/mL
21 | Cc1nc2ccccc2n1C1C[C@H]2CC[C@@H](C1)N2CC[C@H](NC(=O)[C@H]1CC[S@@+]([O-])CC1)c1cccc(F)c1 (stereo not given in full) | – | – | 1 | 36 | Papp A→B at 5 µM [3]: 20 ×10⁻⁶ cm/s; Papp A→B at 5 µM [4]: 2 ×10⁻⁶ cm/s; AUC [18]: 11 ng·h/mL; fAUC [19]: 1.7 ng·h/mL
22 | Cc1nc2ccccc2n1C1C[C@H]2CC[C@@H](C1)N2CC[C@H](NC(=O)[C@H]1CC[S@+]([O-])CC1)c1cccc(F)c1 (stereo not given in full) | – | – | 1 | 111 | AUC [18]: 2 ng·h/mL; fAUC [19]: 0.3 ng·h/mL
23 | Cc1nc2ccccc2n1C1C[C@H]2CC[C@@H](C1)N2CC[C@H](NC(=O)C1CC[S+]([O-])CC1)c1cccc(F)c1 (stereo not given in full) | 0.2 | Not Active | 0.8 | 38 | IC50 [9]: > 10000 nM; half-life [21]: 2.6 h; Vd [22]: 23 L/kg; bioavailability [23]: < 1%; logD [7]: 2.3; clearance [24]: 104 mL/min/kg
24 | Cc1nc2ccccc2n1C1C[C@H]2CC[C@@H](C1)N2CC[C@H](NC(=O)C1CCS(=O)(=O)CC1)c1cccc(F)c1 (stereo not given in full) | 0.2 | Not Active | 4 | 23 | Papp A→B at 5 µM [3]: 20 ×10⁻⁶ cm/s; Papp A→B at 5 µM [4]: < 1 ×10⁻⁶ cm/s; AUC [18]: < 1 ng·h/mL; fAUC [19]: < 0.1 ng·h/mL
25 | CC[S+]([O-])CC(=O)N[C@@H](CCN1[C@@H]2CC[C@H]1CC(n1c(C)nc3ccccc31)C2)c1cccc(F)c1 (stereo not given in full) | > 100 | – | – | – | –
26 | Cc1nc2ccccc2n1C1C[C@H]2CC[C@@H](C1)N2CC[C@H](NC(=O)c1cc[n+]([O-])cc1)c1cccc(F)c1 (stereo not given in full) | 4 | – | – | – | –
27 | Cc1nc2ccccc2n1C1C[C@H]2CC[C@@H](C1)N2CC[C@H](NC(=O)c1ccc[n+]([O-])c1)c1cccc(F)c1 (stereo not given in full) | 5 | – | – | – | –
28 | Cc1nc2ccccc2n1C1C[C@H]2CC[C@@H](C1)N2CC[C@H](NC(=O)c1cccc[n+]1[O-])c1cccc(F)c1 (stereo not given in full) | > 100 | – | – | – | –
29 | Cc1nc2cnccc2n1C1C[C@H]2CC[C@@H](C1)N2CC[C@H](NC(=O)C1CC[S+]([O-])CC1)c1cccc(F)c1 (stereo not given in full) | 4 | – | – | – | –
30 | Cc1nc2ccncc2n1C1C[C@H]2CC[C@@H](C1)N2CCC(NC(=O)C1CC[S+]([O-])CC1)c1cccc(F)c1 (stereo not given in full) | 1 | Not Active | – | 50 | Papp A→B at 5 µM [3]: 2 ×10⁻⁶ cm/s; Papp A→B at 5 µM [4]: 2 ×10⁻⁶ cm/s
